From ChEMBL document CHEMBL1201862, “PubChem BioAssay data set” (2004)
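Grown in 96-well plates, cells were treated for 48 hours with each compound at five concentrations. Insufficient inhibition: endpoint recorded as highest concentration tested. At the GI50, growth is halved.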 Active and inactive are the calls of the source. Rule as the data show it: active = GI50 up to about 1.1 µM and inactive = higher.

How the values were obtained:
Assay in all cases: inhibition of tumour cell growth, NCI panel, 48 h
U-251 = test system: U-251
HCT-116 = test system: HCT-116
NCI-H522 = test system: NCI-H522
A549 = test system: A549
LOX IMVI = test system: LOX IMVI
SR = test system: SR
CAKI-1 = test system: CAKI-1
ACHN = test system: ACHN
SNB-19 = test system: SNB-19
SW-620 = test system: SW-620
SK-OV-3 = test system: SK-OV-3
Malme-3M = test system: Malme-3M
UACC-257 = test system: UACC-257
SN12C = test system: SN12C
HCC 2998 = test system: HCC 2998
BT-549 = test system: BT-549
DU-145 = test system: DU-145
MDA-MB-435 = test system: MDA-MB-435
NCI/ADR-RES = test system: NCI/ADR-RES

Measured: GI50

N#CCCN(CCC#N)c1ccc(/C=C(/NC(=O)c2cc([N+](=O)[O-])ccc2Cl)C(=O)NN)cc1
inactive: U-251 > 100 µM | HCT-116 > 100 µM | NCI-H522 > 100 µM | A549 > 100 µM | LOX IMVI 41.4 µM | SR 3.94 µM | CAKI-1 > 100 µM | ACHN > 100 µM | SNB-19 > 100 µM | SW-620 > 100 µM | SK-OV-3 > 100 µM | Malme-3M > 100 µM | UACC-257 > 100 µM | SN12C > 100 µM | HCC 2998 > 100 µM

Fc1ccc(/N=N/N2CCCC2)cc1
inactive: U-251 > 100 µM | HCT-116 85.7 µM | BT-549 41.8 µM | NCI-H522 > 100 µM | A549 > 100 µM | LOX IMVI 4.94 µM | DU-145 52.5 µM | MDA-MB-435 37.2 µM | SR 28.4 µM | CAKI-1 > 100 µM | ACHN 68.4 µM | SNB-19 > 100 µM | SW-620 > 100 µM | SK-OV-3 > 100 µM | Malme-3M > 100 µM | UACC-257 57.4 µM | SN12C 51.1 µM | HCC 2998 15.5 µM

CN(NC(=O)c1cccs1)C1=NCCN1
inactive: U-251 > 100 µM | HCT-116 > 100 µM | BT-549 > 100 µM | NCI-H522 > 100 µM | A549 > 100 µM | LOX IMVI > 100 µM | MDA-MB-435 > 100 µM | NCI/ADR-RES > 100 µM | SR > 100 µM | ACHN > 100 µM | SNB-19 > 100 µM | SW-620 > 100 µM | SK-OV-3 > 100 µM | Malme-3M > 100 µM | UACC-257 > 100 µM | HCC 2998 > 100 µM

N#Cc1c(-c2ccccc2)c(/N=N/c2ccc(Cl)cc2)c(=O)n2c1[nH]c1ccccc12
inactive: U-251 21.2 µM | HCT-116 31 µM | BT-549 > 100 µM | NCI-H522 79.4 µM | A549 > 100 µM | LOX IMVI > 100 µM | MDA-MB-435 > 100 µM | NCI/ADR-RES 92.9 µM | CAKI-1 24.3 µM | ACHN > 100 µM | SNB-19 > 100 µM | SW-620 > 100 µM | SK-OV-3 94.2 µM | Malme-3M > 100 µM | UACC-257 > 100 µM | SN12C > 100 µM | HCC 2998 52.6 µM

Cc1nnc2n(c1=O)CCN2C
inactive: U-251 > 100 µM | HCT-116 > 100 µM | BT-549 > 100 µM | A549 > 100 µM | LOX IMVI > 100 µM | DU-145 > 100 µM | MDA-MB-435 > 100 µM | SR > 100 µM | ACHN > 100 µM | SNB-19 > 100 µM | SW-620 > 100 µM | SK-OV-3 > 100 µM | Malme-3M > 100 µM | SN12C > 100 µM | HCC 2998 > 100 µM

COc1cc(O)c2c(=O)c3c(C)cccc3n(C)c2c1
inactive: U-251 > 10 µM | HCT-116 > 10 µM | BT-549 > 10 µM | NCI-H522 > 10 µM | A549 > 10 µM | LOX IMVI > 10 µM | DU-145 > 10 µM | MDA-MB-435 > 10 µM | NCI/ADR-RES > 10 µM | CAKI-1 > 10 µM | ACHN > 10 µM | SNB-19 > 10 µM | SW-620 > 10 µM | SK-OV-3 > 10 µM | Malme-3M > 10 µM | UACC-257 > 10 µM | SN12C > 10 µM | HCC 2998 > 10 µM

CC1(C)CC[C@]2(C(=O)O)CC[C@]3(C)C(=CC[C@@H]4[C@@]5(C)CC[C@@H]6OC(C)(C)OC[C@@]6(C)[C@@H]5CC[C@]43C)[C@H]2C1
inactive: U-251 5.89 µM | HCT-116 5.33 µM | NCI-H522 7.71 µM | LOX IMVI 4.8 µM | DU-145 9.86 µM | MDA-MB-435 8.55 µM | NCI/ADR-RES 16.9 µM | SR 10.1 µM | CAKI-1 9.91 µM | ACHN 3.24 µM | SNB-19 17.6 µM | SW-620 14.5 µM | SK-OV-3 17.1 µM | Malme-3M 12.6 µM | UACC-257 13.2 µM | SN12C 3.13 µM | HCC 2998 13.2 µM

CC(=O)n1c(COS(C)(=O)=O)nc2ccccc21
inactive: U-251 > 100 µM | HCT-116 > 100 µM | BT-549 > 100 µM | NCI-H522 > 100 µM | A549 > 100 µM | LOX IMVI > 100 µM | DU-145 > 100 µM | MDA-MB-435 > 100 µM | NCI/ADR-RES > 100 µM | CAKI-1 > 100 µM | ACHN > 100 µM | SNB-19 > 100 µM | SW-620 > 100 µM | Malme-3M > 100 µM | UACC-257 > 100 µM | SN12C > 100 µM | HCC 2998 > 100 µM

CCC(C)[C@@H](NCc1ccccc1)[C@H](OCc1ccccc1)[C@@H]1COC(C)(C)O1 (some centres not stated)
inactive: U-251 19.2 µM | HCT-116 13 µM | A549 25.4 µM | LOX IMVI 18 µM | DU-145 27.4 µM | MDA-MB-435 32.5 µM | NCI/ADR-RES 21.1 µM | SR 26.1 µM | ACHN 20.9 µM | SNB-19 17 µM | SW-620 18 µM | SK-OV-3 30.5 µM | Malme-3M 18.4 µM | UACC-257 18.7 µM | SN12C 22.6 µM

S=C(N/N=C\C=N/NC(=S)N1CCCCCC1)N1CCCCCC1
inactive: U-251 5.21 µM | HCT-116 7.73 µM | BT-549 > 100 µM | NCI-H522 8.07 µM | A549 6.85 µM | LOX IMVI 13.5 µM | DU-145 9.31 µM | MDA-MB-435 42.8 µM | NCI/ADR-RES 15.6 µM | CAKI-1 > 26.7 µM | ACHN 8.59 µM | SNB-19 34.2 µM | SW-620 6.78 µM | SK-OV-3 25.5 µM | Malme-3M 22.2 µM | UACC-257 > 61.9 µM | SN12C > 100 µM | HCC 2998 > 64.9 µM

C[N+](C)=c1nc(N2CCOCC2)ss1
inactive: U-251 > 100 µM | HCT-116 > 100 µM | NCI-H522 13.7 µM | A549 47.3 µM | LOX IMVI 88.7 µM | SR > 100 µM | CAKI-1 > 100 µM | ACHN > 100 µM | SNB-19 > 100 µM | SW-620 > 100 µM | SK-OV-3 > 100 µM | UACC-257 > 100 µM | SN12C > 100 µM | HCC 2998 > 100 µM

O=C(Cn1c(=O)oc2ccccc21)N(c1ccccc1)c1ccccc1
inactive: U-251 95.1 µM | HCT-116 > 100 µM | BT-549 > 100 µM | LOX IMVI > 100 µM | DU-145 > 100 µM | MDA-MB-435 > 100 µM | NCI/ADR-RES 77.6 µM | SR > 100 µM | CAKI-1 > 100 µM | ACHN > 100 µM | SNB-19 > 100 µM | SW-620 > 100 µM | SK-OV-3 > 100 µM | Malme-3M 3.39 µM | UACC-257 > 100 µM | SN12C > 100 µM

CC(C)CCc1n[nH]c(=O)n1/N=C\c1ccccc1
inactive: U-251 > 100 µM | HCT-116 > 100 µM | NCI-H522 85.7 µM | A549 > 100 µM | LOX IMVI > 100 µM | DU-145 > 100 µM | MDA-MB-435 > 100 µM | NCI/ADR-RES 57.4 µM | CAKI-1 > 10 µM | ACHN > 100 µM | SNB-19 > 100 µM | SW-620 > 100 µM | SK-OV-3 > 100 µM | Malme-3M > 100 µM | UACC-257 > 100 µM | SN12C > 100 µM | HCC 2998 > 100 µM

COc1ccc2cc(NC(=O)Nn3cnnc3)ccc2c1
inactive: U-251 > 100 µM | HCT-116 > 100 µM | BT-549 > 100 µM | NCI-H522 > 100 µM | A549 > 100 µM | LOX IMVI > 100 µM | DU-145 > 100 µM | MDA-MB-435 > 100 µM | SR > 100 µM | CAKI-1 > 100 µM | ACHN > 100 µM | SNB-19 > 100 µM | SW-620 > 100 µM | SK-OV-3 > 100 µM | Malme-3M > 100 µM | UACC-257 > 100 µM | HCC 2998 > 100 µM

c1ccc2c3c([nH]c2c1)C1CCCN1CC3 (configuration not stated)
inactive: U-251 > 10 µM | NCI-H522 > 10 µM | LOX IMVI > 10 µM | DU-145 > 10 µM | MDA-MB-435 > 10 µM | NCI/ADR-RES > 10 µM | SR > 10 µM | CAKI-1 > 10 µM | ACHN > 10 µM | SNB-19 > 10 µM | SW-620 > 10 µM | SK-OV-3 > 10 µM | Malme-3M > 10 µM | UACC-257 > 10 µM | SN12C > 10 µM | HCC 2998 > 10 µM

CC(=O)Oc1cc2oc(=O)cc(C)c2cc1OC(C)=O
inactive: U-251 51.1 µM | HCT-116 44 µM | A549 37.3 µM | LOX IMVI 40.2 µM | DU-145 52.7 µM | MDA-MB-435 48.4 µM | NCI/ADR-RES 32.4 µM | SR 39.6 µM | ACHN 42.2 µM | SNB-19 > 100 µM | SW-620 46.2 µM | SK-OV-3 > 100 µM | Malme-3M 28.5 µM | UACC-257 48.9 µM | SN12C 48.1 µM

O=C1/C(=C/c2ccc(Cl)cc2)CSc2ccccc21
inactive: U-251 5.87 µM | HCT-116 2.6 µM | BT-549 27 µM | A549 45.5 µM | LOX IMVI 2.68 µM | DU-145 38.2 µM | MDA-MB-435 4.86 µM | NCI/ADR-RES 16.6 µM | SR 5 µM | CAKI-1 19.4 µM | SNB-19 9.2 µM | SW-620 3.71 µM | SK-OV-3 31.8 µM | Malme-3M 25.5 µM | UACC-257 12.7 µM | SN12C 17.2 µM
